Earlier results in patent publication US7803960B2, “Phenyloxyaniline derivatives” (Bayer Schering Pharma Aktiengesellschaft, priority 2006, dated 2010).

How the values were obtained:
[1] = tested on: Peripheral benzodiazepine receptor (PBR); conditions: compared with [^11C]PK11195 (1)
[2] = compared with [^11C]PK11195 (1)
PBRs = target: T1, PBRs (Homo sapiens, UniProt P30536); conditions: C-11 isotope labeled version, in vivo imaging
T1 construct: host or cells: brain, in vivo
T1 sequence (P30536 whole entry): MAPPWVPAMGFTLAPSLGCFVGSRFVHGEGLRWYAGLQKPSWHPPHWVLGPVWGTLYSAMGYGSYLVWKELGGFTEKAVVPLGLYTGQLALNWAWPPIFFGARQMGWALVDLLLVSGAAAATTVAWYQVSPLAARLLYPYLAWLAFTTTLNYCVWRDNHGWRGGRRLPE

Compound | binding affinity to PBR [1] | accumulation in the brain [2] | signal in the brain (PBRs)
COc1ccc(O[11CH3])c(CN(C(C)=O)c2cc(F)ccc2Oc2ccccc2)c1 [Compound 2] | higher | higher | –
COc1ccc(OCC[18F])c(CN(C(C)=O)c2cc(F)ccc2Oc2ccccc2)c1 [Compound 3, N-(5-Fluoro-2-phenoxyphenyl)-N-(2-(2-[^18F]fluoroethoxy)-5-methoxybenzyl)acetamide] | higher | higher | –
CC[C@@H](C)N(C)C(=O)c1cc2ccccc2c(-c2ccccc2Cl)n1 [PK11195] | – | – | not high enough for stable quantitative analysis
